Laboratory results reported in patent US4569792A, “Anti-diabetic compounds” (Eli Lilly and Company, priority 1984, dated 1986).

Key:
Details in all cases: relative to human proinsulin = 1
[1] = test system: insulin receptor (125I-insulin binding to IM-9 cells); test: IM-9 Radioreceptor Assay
Experimental: IM-9 cells were grown in RPMI media containing 2mM glutamine, 25 mM HEPES, and 10% fetal bovine serum. […] Incubations were carried out in 1.5 ml microfuge tubes at 15° C. for two hours. Concentrations of stock solutions containing insulin, proinsulin, or compound of this invention used in the binding studies were established by amino acid analysis and by their absorbance at 276 nm. The cells were resuspended during the assay every 30 minutes by inverting the tubes several times. At the end of the incubation, the tubes were centrifuged for one minute in a Beckman Microfuge, the supernatant was aspirated, the tips of the tubes containing the cell pellet were excised, and the radioactivity was measured.

[2] = test system: insulin receptor (125I-labeled insulin binding to isolated fat cells); test: Isolated Fat Cell Radioreceptor Assay
Experimental: Isolated fat cells were prepared by a modification [Huber, C. T., Solomon, S. S., and Duckworth, W. C., J. Clin. Invest. […] All incubations were in Krebs-Ringer-Hepes (KRH) buffer, pH 7.4, with 4% bovine serum albumin (BSA) in a total volume of 2 ml. […] At selected times, triplicate 300 μl aliquots were removed and added to microfuge tubes containing 100 μl dinonyl phthalate [see Gliemann, J., Osterlind, K., Vinten, J., and Gammeltoft, S., Biochem. Biophys. Acta. […] After centrifugation for one minute in a microfuge, the tubes were cut through the oil layer, and the cell pellet was counted using a gamma counter to determine binding.

isolated rat adipocytes = test: Biological Activity in Isolated Rat Adipocytes (incorporation of 2-3H-glucose in total fat cell lipid); assay type: cell-based
Experimental: Adipocytes were prepared from epididymal fat pads by a modification (Huber, supra) of the collagenase digestion procedure of Rodbell, supra. Krebs-Ringer-HEPES (KRH) buffer, pH 7.4, containing 4% bovine serum albumin and 0.55 mM glucose was used in all isolation and incubation steps.
Biological activity was assessed according to the method of Moody, A. J., Stan, M. A., Stan, M., and Glieman, J., Horm. Metab. Res. 6, 12-16 (1974) by monitoring the incorporation of 2-^3 H-glucose in total fat cell lipid. […] Radioactivity was determined in a Searle Isocap 300 liquid scintillation counter at an efficiency of approximately 30%. Blanks were prepared in which the scintillation fluid was added to the vials prior to the addition of cells. The average counts obtained from these vials were subtracted from those observed in all other samples.
Competitive binding curves and biological activity dose-response curves were analyzed using the PREFIT and ALLFIT programs [DeLean, A., Munson, P. J., and Rodbard, D., Am. J. Physiol. 235, E97-E102 (1978)] based on a four-parameter logistic model. These analyses indicated the concentration of insulin or proinsulin necessary to produce a half-maximal response, as well as the maximal and minimal values. All values are presented as the mean ± SEM.

Measured: Relative Potency

Human Proinsulin
1: all assays above
